Experiments:
[1] = test system: house flies, Musca domestica; experiment: Topical insecticidal activity against house flies (percent mortality 24 h after application, LD50); format: in vivo; details: read-out: House fly LD50
Description: Representative compounds of the invention were tested for insecticidal activity against house flies, Musca domestica. Stock 1% concentrated solutions of each of the test compounds were made in acetone, and such solutions diluted with acetone to a concentration of 0.001-0.1%. House flies were treated topically on the notum by 1 μl of each of the diluted acetone solutions and percent mortality was counted 24 hours after application.

[2] = Mammalian toxicity, oral, Swiss white mice (LD50); format: in vivo; details: mouse, in vivo; oral, corn oil carrier, Swiss white mice
Description: (§1) Mammalian toxicity was determined against Swiss white mice. The test compound was applied orally using corn oil as the carrier.

Swiss white mice = experiment: Mammalian toxicity, oral, Swiss white mice (LD50); format: in vivo; details: mouse oral, from Table II
Description: as §1

Water solubility = format: physicochemical
insects = details: in vivo; cited from earlier work
mammals = details: in vivo; cited from earlier work

Compound | LD50 [1] [mg/kg] | LD50 [2] [mg/kg] | mammalian toxicity compared with methamidophos (Swiss white mice) | water solubility (Water solubility) | insecticidal activity / toxicity to insects (background) (insects) | mammalian toxicity (background) (mammals)
CCCOC(=O)N(CCC)SNP(=O)(OC)SC (centres unmarked) [Compound 5] | 1.9 | 36 |  |  |  | 
CCN(SNP(=O)(OC)SC)C(=O)OC (centres unmarked) [Compound 1, O,S-dimethyl N-(N'-methoxycarbonyl-N'-ethylaminosulfenyl)phosphoramidothioate] | 2.8 | 30 |  |  |  | 
CCOC(=O)N(SNP(=O)(OC)SC)C(C)(C)C (centres unmarked) [Compound 9, O,S-Dimethyl N-[N'-(ethoxycarbonyl)-N'-(tert.-butylaminosulfenyl)]phosphoramidothioate] | 2.5 | 50 | lower |  |  | 
CCCOC(=O)N(SNP(=O)(OC)SC)C(C)(C)C (centres unmarked) [Compound 10] | 1.6 | 50 | lower |  |  | 
COP(N)(=O)SC (centres unmarked) [Methamidophos, O,S-dimethyl phosphoramidothiote] |  |  |  | freely soluble in water | high toxicity to both insects and mammals | high toxicity to both insects and mammals
CCOC(=O)N(SNP(=O)(OC)SC)C(C)C (centres unmarked) [Compound 6, O,S-Dimethyl N-[N'-(ethoxycarbonyl)-N'-(isopropylaminosulfenyl)]phosphoramidothioate] | 1.9 | 50 | lower |  |  | 
CCCN(SNP(=O)(OC)SC)C(=O)OC (centres unmarked) [Compound 3] | 1.6 |  |  |  |  | 
CCCN(SNP(=O)(OC)SC)C(=O)OCC (centres unmarked) [Compound 4] | 2 |  |  |  |  | 
COP(=O)(NSN(C(=O)OC(C)C)C(C)C)SC (centres unmarked) [Compound 7, O,S-Dimethyl N-[N'-(isopropoxycarbonyl)-N'-(isopropylaminosulfenyl)]phosphoramidothioate] | 2.7 |  |  |  |  | 
CCCCCCOC(=O)N(CC)SNP(=O)(OC)SC (centres unmarked) [Compound 2] | 3.8 | 34 |  |  |  | 
COP(=O)(NC(C)=O)SC (centres unmarked) [acephate] |  |  |  |  | high insecticidal activity | relatively low mammalian toxicity
CCCOC(=O)N(SNP(=O)(OC)SC)C(C)C (centres unmarked) [Compound 8, O,S-dimethyl N-(N'-propoxycarbonyl-N'-isopropylaminosulfenyl)phosphoramidothioate] | 2.5 | 50 | lower |  |  | 

Reference: patent US4279897A, “(Alkoxycarbonyl)(alkyl)aminosulfenyl derivatives of phosphoramidothioate esters” (priority 1979, dated 1981)
